According to PubChem BioAssay (NCI):
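The compound was tested at five concentrations on cells cultured in 96-well plates, with a 48-hour exposure period. Definition used: TGI = concentration required for complete inhibition of growth.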

What was measured:
Assay in all cases: NCI tumour cell line growth inhibition, 48 h
SK-OV-3 ovarian = tested on: SK-OV-3 ovarian
LOX IMVI melanoma = tested on: LOX IMVI melanoma
HT29 colon = tested on: HT29 colon
DU-145 prostate = tested on: DU-145 prostate
T-47D breast = tested on: T-47D breast
MDA-N = tested on: MDA-N
SW-620 colon = tested on: SW-620 colon
A549 NSCLC = tested on: A549 NSCLC
MOLT-4 leukemia = tested on: MOLT-4 leukemia
A498 renal = tested on: A498 renal
MDA-MB-435 = tested on: MDA-MB-435
MDA-MB-231 breast = tested on: MDA-MB-231 breast
HL-60(TB) leukemia = tested on: HL-60(TB) leukemia

SMILES	TGI (SK-OV-3 ovarian)	TGI (LOX IMVI melanoma)	TGI (HT29 colon)	TGI (DU-145 prostate)	TGI (T-47D breast)	TGI (MDA-N)	TGI (SW-620 colon)	TGI (A549 NSCLC)	TGI (MOLT-4 leukemia)	TGI (A498 renal)	TGI (MDA-MB-435)	TGI (MDA-MB-231 breast)	TGI (HL-60(TB) leukemia)
CC(=O)NC1C(OCC(=O)NCCNc2ccc([N+](=O)[O-])c3[nH]c4ccccc4c(=O)c23)C(O)C(CO)OC1(C)OCc1ccccc1 (stereo not given)	> 100 µM	> 100 µM	> 100 µM	> 100 µM	> 100 µM	> 100 µM	> 100 µM	> 100 µM	> 100 µM	> 100 µM	> 100 µM	> 100 µM	–
COc1ccc(-c2oc3cc(-c4cc5oc(-c6ccc(OC)cc6)c(-c6ccc(OC)cc6)c5cc4OC)c(OC)cc3c2-c2ccc(OC)cc2)cc1	> 100 µM	> 100 µM	> 100 µM	> 100 µM	–	> 100 µM	> 100 µM	> 100 µM	> 100 µM	> 100 µM	> 100 µM	> 100 µM	–
N#Cc1ccccc1OCCOc1ccccc1C#N	> 100 µM	> 100 µM	> 100 µM	> 100 µM	> 100 µM	–	> 100 µM	> 100 µM	> 100 µM	> 100 µM	> 100 µM	> 100 µM	> 100 µM
CN(NC1=NCCO1)c1ccc2ccccc2c1	> 100 µM	> 100 µM	> 100 µM	> 100 µM	> 100 µM	–	> 100 µM	> 100 µM	> 100 µM	> 100 µM	> 100 µM	> 100 µM	52.7 µM
O=C1c2ccccc2N2OC3(N4CCOCC4)CCCC3C12c1ccccc1 (stereo not given)	> 100 µM	–	> 100 µM	–	–	–	> 100 µM	> 100 µM	> 100 µM	> 100 µM	–	–	> 100 µM
CC(=O)OC1COC(N2CCc3cc([N+](=O)[O-])ccc32)C(OC(C)=O)C1OC(C)=O (stereo not given)	> 100 µM	> 100 µM	> 100 µM	–	–	–	> 100 µM	> 100 µM	> 100 µM	> 100 µM	–	–	–
COC(=O)/C=C/c1ccc(OP(=O)(O)O)c(OC)c1	> 100 µM	> 100 µM	> 100 µM	> 100 µM	> 100 µM	> 100 µM	> 100 µM	> 100 µM	> 100 µM	> 100 µM	> 100 µM	> 100 µM	–
N#Cc1sc2nc3ccccc3n2c1N	> 100 µM	> 100 µM	> 100 µM	> 100 µM	> 100 µM	> 100 µM	> 100 µM	> 100 µM	> 100 µM	> 100 µM	> 100 µM	> 100 µM	–
CC(SC(=S)N1CCOCC1)C(=O)Nc1nnc(-c2ccc(Cl)cc2)o1 (stereo not given)	> 100 µM	> 100 µM	> 100 µM	> 100 µM	> 100 µM	–	> 100 µM	> 100 µM	> 100 µM	> 100 µM	> 100 µM	> 100 µM	–
Cc1cc(O)c(/C=N/C(N)=S)c(=O)o1	> 100 µM	–	–	> 100 µM	–	> 100 µM	> 100 µM	> 100 µM	> 100 µM	–	> 100 µM	> 100 µM	41.2 µM
C1CCC(N=C2N(C3CCCCC3)C(=NC3CCCCC3)N2C2CCCCC2)CC1	> 100 µM	> 100 µM	> 100 µM	–	–	–	> 100 µM	> 100 µM	> 100 µM	–	–	–	> 100 µM
CN1CCOC(C(NC(=O)c2ccccc2)c2ccccc2)C1=O (stereo not given)	> 100 µM	> 100 µM	> 100 µM	–	–	–	> 100 µM	> 100 µM	> 100 µM	> 100 µM	–	–	> 100 µM
COc1ccc(/C=C2\C(=O)N(NC(C)=O)c3ccccc32)cc1	> 100 µM	> 100 µM	> 100 µM	–	–	–	> 100 µM	> 100 µM	> 100 µM	> 100 µM	–	–	–
O=C(CCc1cc(O)cc(O)c1)NCCc1cc(O)cc(OCc2ccccc2)c1	> 100 µM	> 100 µM	> 100 µM	> 100 µM	> 100 µM	> 100 µM	> 100 µM	> 100 µM	66.2 µM	> 100 µM	> 100 µM	> 100 µM	–
Cc1cc2nc3c(C#N)c(-c4ccccc4)/c(=C\Nc4ccc(F)cc4)c(=O)n3c2cc1C	> 100 µM	> 100 µM	–	–	> 100 µM	> 100 µM	> 100 µM	> 100 µM	–	> 100 µM	> 100 µM	> 100 µM	–
COc1cc2nc(Cl)nc(NS(=O)(=O)c3cc4ccccc4s3)c2cc1OC	98.5 µM	59.5 µM	88.9 µM	60.1 µM	56.7 µM	–	43.5 µM	> 100 µM	–	35.3 µM	54.5 µM	71.7 µM	–
NNC(=O)C(=O)NN=C(C(Cl)(Cl)CO)C(Cl)(Cl)CO	> 100 µM	35.3 µM	> 100 µM	–	–	–	40.3 µM	> 100 µM	50.7 µM	> 100 µM	–	–	69.6 µM
CC(N)(CC(O)(C(F)(F)Cl)C(F)(F)Cl)C(=O)O (stereo not given)	> 10 µM	> 10 µM	> 10 µM	> 10 µM	> 10 µM	> 10 µM	> 10 µM	> 10 µM	> 10 µM	> 10 µM	> 10 µM	> 10 µM	–
NNc1nnc(CCCCCCCCc2nnc(NN)n2N)n1N	> 100 µM	> 100 µM	> 100 µM	> 100 µM	–	> 100 µM	> 100 µM	> 100 µM	> 100 µM	> 100 µM	> 100 µM	> 100 µM	> 100 µM
C1CSCCSCCCS[C@@H]2CCCCC2SC1 (stereo not given in full)	> 100 µM	> 100 µM	> 100 µM	–	–	–	53.5 µM	> 100 µM	–	> 100 µM	–	–	> 100 µM
O=C(c1ccccc1)C1(Br)S(=O)(=O)OCCOS1(=O)=O	> 100 µM	> 100 µM	> 100 µM	–	–	–	> 100 µM	> 100 µM	> 100 µM	> 100 µM	–	–	> 100 µM
